{
  "source": "patent US8889671B2",
  "about": "“Compounds and methods for treating bacterial infections” (AstraZeneca AB, priority 2013, dated 2014)",
  "key": {"Staphylococcus aureus": {"test_system": "Staphylococcus aureus", "assay": "Susceptibility testing (MIC) Assay 1, broth microdilution", "assay_type": "cell-based"}, "Streptococcus pneumoniae": {"test_system": "Streptococcus pneumoniae", "assay": "Susceptibility testing (MIC) Assay 1, broth microdilution", "assay_type": "cell-based"}, "Streptococcus pyogenes": {"test_system": "Streptococcus pyogenes", "assay": "Susceptibility testing (MIC) Assay 1, broth microdilution", "assay_type": "cell-based", "conditions": "Streptococcus pyrgenes, in vivo strain, read-out: Spy MIC"}, "Escherichia coli": {"test_system": "Escherichia coli", "assay": "Susceptibility testing (MIC) Assay 2, broth microdilution", "assay_type": "cell-based", "conditions": "K12, read-out: Eco MIC"}, "Haemophilus influenzae": {"test_system": "Haemophilus influenzae", "assay": "Susceptibility testing (MIC) Assay 2, broth microdilution", "assay_type": "cell-based", "conditions": "ATCC 51907, in vivo strain, read-out: Hin MIC"}, "Klebsiella pneumoniae": {"test_system": "Klebsiella pneumoniae", "assay": "Susceptibility testing (MIC) Assay 2, broth microdilution", "assay_type": "cell-based", "conditions": "clinical isolate, mucoid, read-out: Kpn MIC"}, "Pseudomonas aeruginosa": {"test_system": "Pseudomonas aeruginosa", "assay": "Susceptibility testing (MIC) Assay 2, broth microdilution", "assay_type": "cell-based", "conditions": "for MIC: PAO1, read-out: Pae MIC"}, "[1]": {"target": "Escherichia coli DNA gyrase A/B tetramer (Escherichia coli (strain K12), UniProt P0AES4+P0AES6)", "assay": "DNA gyrase supercoiling activity fluorescence polarisation assay", "assay_type": "biochemical", "conditions": "0.3 mM ATP", "outline": "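Relaxed triplex-forming plasmid (130 micrograms/mL) supercoiled by 5 nM gyrase A/B tetramer in Tris-HCl pH 7.5 buffer with 4 mM MgCl2 and 0.3 mM ATP, ~30 min, ambient temperature. Quenched with 5′-BODIPY-FL triplex probe at pH 3.5; fluorescence anisotropy read after 60 min. IC50 by nonlinear regression against two control reactions.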"}, "[2]": {"conditions": "Staphylococcus aureus, Staphylococcus aureus in vivo strain, MSQS, read-out: Sau(d) MIC"}, "[3]": {"conditions": "Staphylococcus aureus, in vivo strain, MRQR, read-out: Sau(e) MIC"}, "[4]": {"conditions": "Staphylococcus aureus, serum, read-out: Sau(f) MIC"}, "[5]": {"conditions": "in vivo strain (footnote b), read-out: Spn(b) MIC"}, "[6]": {"conditions": "in vivo strain (footnote c), read-out: Spn(c) MIC"}, "[7]": {"conditions": "ATCC51907, Haemophilus influenzae"}, "[8]": {"conditions": "Eco Gyr FP Mean IC50, E. coli DNA gyrase supercoiling"}},
  "note": "pIC50: −log10 of the molar value. Read-outs that look alike come from different tables or passages of the source.",
  "data": [
    {"smiles": "C[C@@H]1CN2c3c(cc4c(N5C(=O)OC[C@@H]5CCO)noc4c3F)CC3(C(=O)NC(=O)NC3=O)[C@H]2[C@H](C)O1", "note": "[Example 31, (2R,4S,4aS)-11-Fluoro-8-((S)-4-(2-hydroxyethyl)-2-oxooxazolidin-3-yl)-2,4-dimethyl-2,4,4a,6-tetrahydro-1H,1′H-spiro[isoxazolo[4,5-g][1,4]oxazino[4,3-a]quinoline-5,5′-pyrimidine]-2′,4′,6′(3′H)-trione]", "values": [
      {"measurement": "MIC", "setting": "Staphylococcus aureus; [2]", "value": 3.1, "unit": "µM"},
      {"measurement": "MIC", "setting": "Staphylococcus aureus; [3]", "value": 12, "unit": "µM"},
      {"measurement": "MIC", "setting": "Staphylococcus aureus; [4]", "value": 3.1, "unit": "µM"},
      {"measurement": "MIC", "setting": "Streptococcus pneumoniae; [5]", "value": 0.78, "unit": "µM"},
      {"measurement": "MIC", "setting": "Streptococcus pneumoniae; [6]", "value": 0.78, "unit": "µM"},
      {"measurement": "MIC", "setting": "Streptococcus pyogenes; Streptococcus pyogenes", "value": 0.39, "unit": "µM"},
      {"measurement": "MIC", "setting": "Escherichia coli", "value": 100, "unit": "µM"},
      {"measurement": "MIC", "setting": "Haemophilus influenzae; [7]", "value": 0.39, "unit": "µM"},
      {"measurement": "MIC", "setting": "Klebsiella pneumoniae", "value": "> 200", "unit": "µM"},
      {"measurement": "MIC", "setting": "Pseudomonas aeruginosa", "value": "> 200", "unit": "µM"},
      {"measurement": "pIC50", "setting": "[1]; [8]", "value": 6.38}
    ]},
    {"smiles": "C[C@@H]1CN2c3c(cc4c(N5C[C@@H](CF)OC5=O)noc4c3Cl)CC3(C(=O)NC(=O)NC3=O)[C@H]2[C@H](C)O1", "note": "[Example 32, (2R,4S,4aS)-11-Chloro-8-((S)-5-(fluoromethyl)-2-oxooxazolidin-3-yl)-2,4-dimethyl-2,4,4a,6-tetrahydro-1H,1′H-spiro[isoxazolo[4,5-g][1,4]oxazino[4,3-a]quinoline-5,5′-pyrimidine]-2′,4′,6′(3′H)-trione]", "values": [
      {"measurement": "MIC", "setting": "Staphylococcus aureus; [2]", "value": "< 0.2", "unit": "µM"},
      {"measurement": "MIC", "setting": "Staphylococcus aureus; [3]", "value": 0.78, "unit": "µM"},
      {"measurement": "MIC", "setting": "Staphylococcus aureus; [4]", "value": 0.39, "unit": "µM"},
      {"measurement": "MIC", "setting": "Streptococcus pneumoniae; [5]", "value": 0.39, "unit": "µM"},
      {"measurement": "MIC", "setting": "Streptococcus pneumoniae; [6]", "value": 0.39, "unit": "µM"},
      {"measurement": "MIC", "setting": "Streptococcus pyogenes; Streptococcus pyogenes", "value": "< 0.2", "unit": "µM"},
      {"measurement": "MIC", "setting": "Escherichia coli", "value": 1.5, "unit": "µM"},
      {"measurement": "MIC", "setting": "Haemophilus influenzae; [7]", "value": 0.27, "unit": "µM"},
      {"measurement": "MIC", "setting": "Klebsiella pneumoniae", "value": 200, "unit": "µM"},
      {"measurement": "MIC", "setting": "Pseudomonas aeruginosa", "value": 200, "unit": "µM"},
      {"measurement": "pIC50", "setting": "[1]; [8]", "value": 6.20}
    ]},
    {"smiles": "C[C@@H]1CN2c3c(cc4c(N5C(=O)OC[C@@H]5CCCO)noc4c3Cl)CC3(C(=O)NC(=O)NC3=O)[C@H]2[C@H](C)O1", "note": "[Example 33, (2R,4S,4aS)-11-Chloro-8-((S)-4-(3-hydroxpropyl)-2-oxooxazolidin-3-yl)-2,4-dimethyl-2,4,4a,6-tetrahydro-1H,1′H-spiro[isoxazolo[4,5-g][1,4]oxazino[4,3-a]quinoline-5,5′-pyrimidine]-2′,4′,6′(3′H)-trione]", "values": [
      {"measurement": "MIC", "setting": "Staphylococcus aureus; Staphylococcus aureus in vivo strain, MSQS, read-out: Sau(d) MIC", "value": 3.1, "unit": "µM"},
      {"measurement": "MIC", "setting": "Staphylococcus aureus; [3]", "value": 12, "unit": "µM"},
      {"measurement": "MIC", "setting": "Staphylococcus aureus; [4]", "value": 6.2, "unit": "µM"},
      {"measurement": "MIC", "setting": "Streptococcus pneumoniae; [5]", "value": 0.39, "unit": "µM"},
      {"measurement": "MIC", "setting": "Streptococcus pneumoniae; [6]", "value": 0.39, "unit": "µM"},
      {"measurement": "MIC", "setting": "Streptococcus pyogenes", "value": 0.39, "unit": "µM"},
      {"measurement": "MIC", "setting": "Escherichia coli", "value": 100, "unit": "µM"},
      {"measurement": "MIC", "setting": "Haemophilus influenzae", "value": 0.78, "unit": "µM"},
      {"measurement": "MIC", "setting": "Klebsiella pneumoniae", "value": ">200", "unit": "µM"},
      {"measurement": "Pae MIC", "setting": "Pseudomonas aeruginosa; PAO1", "value": ">200", "unit": "µM"},
      {"measurement": "pIC50", "setting": "[1]; E. coli DNA gyrase supercoiling, read-out: Eco Gyr FP Mean IC50", "value": 6.59}
    ]},
    {"smiles": "C[C@@H]1CN2c3c(cc4c(N5C(=O)OC[C@@H]5CCCF)noc4c3Cl)CC3(C(=O)NC(=O)NC3=O)[C@H]2[C@H](C)O1", "note": "[Example 34, (2R,4S,4aS)-11-Chloro-8-((S)-4-(3-fluoropropyl)-2-oxooxazolidin-3-yl)-2,4-dimethyl-2,4,4a,6-tetrahydro-1H,1′H-spiro[isoxazolo[4,5-g][1,4]oxazino[4,3-a]quinoline-5,5′-pyrimidine]-2′,4′,6′(3′H)-trione]", "values": [
      {"measurement": "MIC", "setting": "Staphylococcus aureus; [2]", "value": "< 0.2", "unit": "µM"},
      {"measurement": "MIC", "setting": "Staphylococcus aureus; [3]", "value": 0.78, "unit": "µM"},
      {"measurement": "MIC", "setting": "Staphylococcus aureus; [4]", "value": 1.6, "unit": "µM"},
      {"measurement": "MIC", "setting": "Streptococcus pneumoniae; [5]", "value": 0.39, "unit": "µM"},
      {"measurement": "MIC", "setting": "Streptococcus pneumoniae; [6]", "value": 0.39, "unit": "µM"},
      {"measurement": "MIC", "setting": "Streptococcus pyogenes; Streptococcus pyogenes", "value": 0.39, "unit": "µM"},
      {"measurement": "MIC", "setting": "Escherichia coli", "value": 25, "unit": "µM"},
      {"measurement": "MIC", "setting": "Haemophilus influenzae; [7]", "value": 0.39, "unit": "µM"},
      {"measurement": "MIC", "setting": "Klebsiella pneumoniae", "value": 200, "unit": "µM"},
      {"measurement": "MIC", "setting": "Pseudomonas aeruginosa", "value": "> 200", "unit": "µM"},
      {"measurement": "pIC50", "setting": "[1]; [8]", "value": 6.64}
    ]},
    {"smiles": "COC[C@@H]1CN(c2noc3c(F)c4c(cc23)CC2(C(=O)NC(=O)NC2=O)[C@H]2[C@H](C)O[C@H](C)CN42)C(=O)O1", "note": "[Example 35]", "values": [
      {"measurement": "MIC", "setting": "Staphylococcus aureus; [2]", "value": "< 0.2", "unit": "µM"},
      {"measurement": "MIC", "setting": "Staphylococcus aureus; [3]", "value": 1.6, "unit": "µM"},
      {"measurement": "MIC", "setting": "Staphylococcus aureus; [4]", "value": 0.39, "unit": "µM"},
      {"measurement": "MIC", "setting": "Streptococcus pneumoniae; [5]", "value": 0.39, "unit": "µM"},
      {"measurement": "MIC", "setting": "Streptococcus pneumoniae; [6]", "value": 0.39, "unit": "µM"},
      {"measurement": "MIC", "setting": "Streptococcus pyogenes; Streptococcus pyogenes", "value": 0.2, "unit": "µM"},
      {"measurement": "MIC", "setting": "Escherichia coli", "value": 50, "unit": "µM"},
      {"measurement": "MIC", "setting": "Haemophilus influenzae; [7]", "value": 0.78, "unit": "µM"},
      {"measurement": "MIC", "setting": "Klebsiella pneumoniae", "value": "> 200", "unit": "µM"},
      {"measurement": "MIC", "setting": "Pseudomonas aeruginosa", "value": "> 200", "unit": "µM"},
      {"measurement": "pIC50", "setting": "[1]; [8]", "value": 6.51}
    ]},
    {"smiles": "COC[C@H]1CN(c2noc3c(F)c4c(cc23)CC2(C(=O)NC(=O)NC2=O)[C@H]2[C@H](C)O[C@H](C)CN42)C(=O)O1", "note": "[Example 36]", "values": [
      {"measurement": "MIC", "setting": "Staphylococcus aureus; [2]", "value": 0.78, "unit": "µM"},
      {"measurement": "MIC", "setting": "Staphylococcus aureus; [3]", "value": 3.1, "unit": "µM"},
      {"measurement": "MIC", "setting": "Staphylococcus aureus; [4]", "value": 1.6, "unit": "µM"},
      {"measurement": "MIC", "setting": "Streptococcus pneumoniae; [5]", "value": 1.6, "unit": "µM"},
      {"measurement": "MIC", "setting": "Streptococcus pneumoniae; [6]", "value": 1.6, "unit": "µM"},
      {"measurement": "MIC", "setting": "Streptococcus pyogenes; Streptococcus pyogenes", "value": 0.78, "unit": "µM"},
      {"measurement": "MIC", "setting": "Escherichia coli", "value": 100, "unit": "µM"},
      {"measurement": "MIC", "setting": "Haemophilus influenzae; [7]", "value": 1.6, "unit": "µM"},
      {"measurement": "MIC", "setting": "Klebsiella pneumoniae", "value": "> 200", "unit": "µM"},
      {"measurement": "MIC", "setting": "Pseudomonas aeruginosa", "value": "> 200", "unit": "µM"},
      {"measurement": "pIC50", "setting": "[1]; [8]", "value": 6.23}
    ]}
  ]
}
